Measurements reported in ChEMBL document CHEMBL3860078, “Thioflavones as novel neuroprotective agents” (Bioorg Med Chem, 2016).
Activity calls are given as the source filed them. No cut-off for these calls is given here.

Assays:
[1] = Neuroprotective activity against H2O2-induced oxidative stress in human SH-SY5Y cells assessed as cell viability at 3 uM preincubated for 24 hrs followed by H2O2 addition for 1 hr measured after 17 hrs by MTT assay relative to control; format: functional; conditions: read-out: Activity
[2] = Antioxidant activity assessed as DPPH free radical scavenging activity at 3 uM after 30 mins incubation in dark; format: functional
[3] = target: T1, Bcl2-associated agonist of cell death (Homo sapiens) (UniProt Q92934); assay: Induction of BAD phosphorylation in human SH-SY5Y cells at 3 uM preincubated for 24 hrs followed by H2O2 addition for 1 hr by pathscan sandwich immunoassay; format: cell-based
T1 sequence (whole entry): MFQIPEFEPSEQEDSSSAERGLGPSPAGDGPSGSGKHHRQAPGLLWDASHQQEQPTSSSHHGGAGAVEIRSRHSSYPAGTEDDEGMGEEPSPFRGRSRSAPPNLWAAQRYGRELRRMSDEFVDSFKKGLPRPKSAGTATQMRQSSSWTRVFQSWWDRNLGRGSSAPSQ

[4] = Neurotoxicity against human SH-SY5Y cells assessed as reduction in cell viability at 10 uM after 24 hrs by MTT assay; format: toxicity, cell-based
[5] = Metal chelating activity assessed as Fe2+-compound complex fromation at 3 uM incubated for 5 mins in presence of ferrous chloride hexahydrate followed by ferrozine addition measured after 10 mins; format: physicochemical
[6] = Neurotoxicity against human SH-SY5Y cells assessed as reduction in cell viability at 3 to 10 uM after 24 hrs by MTT assay; format: toxicity, cell-based
[7] = Metal chelating activity assessed as Fe2+-compound complex fromation incubated for 5 mins in presence of ferrous chloride hexahydrate followed by ferrozine addition measured after 10 mins
SH-SY5Y = assay: Induction of AMPKalpha phosphorylation in human SH-SY5Y cells at 3 uM preincubated for 24 hrs followed by H2O2 addition for 1 hr by pathscan sandwich immunoassay; format: cell-based
[8] = Neuroprotective activity in human SH-SY5Y cells assessed as protection against H2O2-induced oxidative stress at 0.3 uM preincubated for 24 hrs followed by H2O2 addition for 1 hr measured after 17 hrs by MTT assay relative to control; format: functional, cell-based
[9] = target: Mitogen-activated protein kinase; ERK1/ERK2 (Homo sapiens) (UniProt P27361+P28482); assay: Induction of ERK1/2 phosphorylation in human SH-SY5Y cells at 3 uM preincubated for 24 hrs followed by H2O2 addition for 1 hr by pathscan sandwich immunoassay; format: cell-based
Mitogen-activated protein kinase; ERK1/ERK2 (Homo sapiens), sequence (P27361 whole entry, looked up): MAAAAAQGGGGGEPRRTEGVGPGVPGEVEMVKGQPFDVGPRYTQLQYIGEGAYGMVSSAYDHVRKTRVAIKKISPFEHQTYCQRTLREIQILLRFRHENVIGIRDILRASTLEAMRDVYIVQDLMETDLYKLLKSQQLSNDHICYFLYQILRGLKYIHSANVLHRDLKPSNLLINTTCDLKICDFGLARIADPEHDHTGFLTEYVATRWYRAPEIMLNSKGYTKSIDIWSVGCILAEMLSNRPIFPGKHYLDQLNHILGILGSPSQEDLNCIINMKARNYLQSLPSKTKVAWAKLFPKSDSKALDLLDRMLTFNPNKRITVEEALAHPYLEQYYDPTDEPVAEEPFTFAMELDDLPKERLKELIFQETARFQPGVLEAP
Mitogen-activated protein kinase; ERK1/ERK2 (Homo sapiens), sequence (P28482 whole entry, looked up): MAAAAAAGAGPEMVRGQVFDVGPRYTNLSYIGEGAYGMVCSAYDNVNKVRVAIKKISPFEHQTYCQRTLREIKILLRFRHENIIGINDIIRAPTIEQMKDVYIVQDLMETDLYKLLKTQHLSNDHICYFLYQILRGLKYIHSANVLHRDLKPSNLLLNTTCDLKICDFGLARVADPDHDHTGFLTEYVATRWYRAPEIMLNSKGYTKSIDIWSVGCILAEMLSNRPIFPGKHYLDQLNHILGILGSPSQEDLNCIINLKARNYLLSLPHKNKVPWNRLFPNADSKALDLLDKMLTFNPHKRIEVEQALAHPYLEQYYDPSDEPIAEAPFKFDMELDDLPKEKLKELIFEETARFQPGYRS

[10] = target: Serine/threonine-protein kinase mTOR (Homo sapiens) (UniProt P42345); assay: Induction of mTOR phosphorylation in human SH-SY5Y cells at 3 uM preincubated for 24 hrs followed by H2O2 addition for 1 hr by pathscan sandwich immunoassay; format: cell-based
[11] = Antioxidant activity assessed as DPPH free radical scavenging activity after 30 mins incubation in dark; format: functional
[12] = target: Proline-rich AKT1 substrate 1 (Homo sapiens) (UniProt Q96B36); assay: Induction of PRAS40 phosphorylation in human SH-SY5Y cells at 3 uM preincubated for 24 hrs followed by H2O2 addition for 1 hr by pathscan sandwich immunoassay; format: cell-based
[13] = Antioxidant activity assessed as DPPH free radical scavenging activity after 30 mins incubation in dark by UV-Vis spectrophotometric analysis; format: functional

## O=c1cc(-c2ccco2)oc2c(O)c(O)ccc12
[1]
  viability at 3 µM: < 60%

## O=c1cc(-c2cccnc2)oc2c(O)c(O)ccc12
[1]
  viability at 3 µM: < 60%

## Oc1ccc2c(=S)cc(-c3ccco3)oc2c1O
[1]
  viability at 3 µM: < 60%

## Oc1ccc2c(=S)cc(-c3ccc(Br)cc3)oc2c1O
[2]
  Activity: 1.6%
[3]
  Activity: Active
[4]
  Activity: 52%
[1]
  viability at 3 µM: 97.8%
[5]
  Activity: 4.4%

## Oc1ccc2c(=S)cc(-c3ccc(F)cc3)oc2c1O
[6]
  Activity: Non-Toxic
[1]
  viability at 3 µM: 97.4%

## N#Cc1ccc(-c2cc(=O)c3ccc(O)c(O)c3o2)cc1
[1]
  viability at 3 µM: 84.6%

## O=C(O)CN(CCN(CC(=O)O)CC(=O)O)CC(=O)O [EDETIC ACID]
[7]
  IC50: 42 µM
[5]
  Activity: 6.9%

## N#Cc1ccc(-c2cc(=S)c3ccc(O)c(O)c3o2)cc1
SH-SY5Y
  Activity: Active
[8]
  Activity: > 70%
[6]
  Activity: Non-Toxic
[2]
  Activity: 1.3%
[1]
  viability at 3 µM: 106%
[9]
  Activity: Active
[10]
  Activity: Active
[5]
  Activity: 3.9%

## Oc1ccc2c(=S)cc(-c3ccccc3)oc2c1O
[1]
  viability at 3 µM: 72.4%

## Oc1cc(O)c2c(=S)cc(-c3ccc(O)c(O)c3)oc2c1
[6]
  Activity: Non-Toxic
[1]
  viability at 3 µM: 67.4 to 73%

## Oc1ccc2c(=S)cc(-c3cccnc3)oc2c1O
[1]
  viability at 3 µM: < 60%

## O=c1cc(-c2ccc(O)c(O)c2)oc2cc(O)cc(O)c12 [LUTEOLIN]
[2]
  Activity: 1.9%
[1]
  viability at 3 µM: 98.3%
[5]
  Activity: 3.4%

## Oc1cc(O)c2c(=S)cc(-c3ccccc3)oc2c1
[1]
  viability at 3 µM: < 50%

## O=C1O[C@H]([C@@H](O)CO)C(O)=C1O [ASCORBIC ACID]
[11]
  IC50: 330 µM
[2]
  Activity: 1.3%

## O=c1cc(-c2cccs2)oc2c(O)c(O)ccc12
[1]
  viability at 3 µM: < 60%

## Oc1ccc2c(=S)cc(-c3ccc(Cl)cc3)oc2c1O
SH-SY5Y
  Activity: Active
[8]
  Activity: > 70%
[6]
  Activity: Non-Toxic
[2]
  Activity: 1.7%
[3]
  Activity: Active
[1]
  viability at 3 µM: 107%
[12]
  Activity: Active
[9]
  Activity: Active
[10]
  Activity: Active
[5]
  Activity: 5%

## O=c1cc(-c2ccccc2)oc2c(O)c(O)ccc12 [7,8-DIHYDROXYFLAVONE]
[13]
  IC50: 15.5 µM
[6]
  Activity: Non-Toxic
[2]
  Activity: 1.4%
[3]
  Activity: Active
[1]
  viability at 3 µM: 96.2 to 97%
[5]
  Activity: 3.7%

## O=c1cc(-c2ccccc2)oc2cc(O)cc(O)c12 [CHRYSIN]
[1]
  viability at 3 µM: < 50%

## O=c1cc(-c2ccc(F)cc2)oc2c(O)c(O)ccc12
[6]
  Activity: Non-Toxic
[1]
  viability at 3 µM: 88.8%

## O=c1cc(-c2ccc(Br)cc2)oc2c(O)c(O)ccc12
[6]
  Activity: Non-Toxic
[1]
  viability at 3 µM: 84%

## O=c1cc(-c2ccc(Cl)cc2)oc2c(O)c(O)ccc12
[2]
  Activity: 1.4%
[1]
  viability at 3 µM: 93.4%
[10]
  Activity: Active
[5]
  Activity: 3.7%

## Oc1ccc2c(=S)cc(-c3cccs3)oc2c1O
[1]
  viability at 3 µM: < 60%
